In patent US10167262B2, “Herbicidal substituted 3-arylpyrazoles” (FMC CORPORATION, priority 2014, dated 2019):
Where two headings read alike, the source gives them in different places.

Legend:
Type in all cases: in vivo
[1] = system: johnsongrass (Sorghum halepense); assay: Test C pre-/postemergence greenhouse test, plant response rating 0-100; details: Sorghum halepense; for pest or weed control at 62 g/ha: 62 g ai/ha; for pest or weed control at 125 g/ha: 125 g ai/ha; for pest or weed control at 250 g/ha: 250 g ai/ha; for pest or weed control at 500 g/ha: 500 g ai/ha
Source text: (§1) Seeds of plant species selected from blackgrass (Alopecurus myosuroides), Italian ryegrass (Lolium multiflorum), winter wheat (Triticum aestivum), galium (catchweed bedstraw, Galium aparine), corn (Zea mays), large (Lg) crabgrass (Digitaria sanguinalis), giant foxtail (Setaria faberii), johnsongrass (Sorghum halepense), lambsquarters (Chenopodium album), morningglory (Ipomoea coccinea), yellow nutsedge (Cyperus esculentus), pigweed (Amaranthus retroflexus), ragweed (common ragweed, Ambrosia elatior), soybean (Glycine max), barnyardgrass (Echinochloa crus-galli), oilseed rape (Brassica napus), waterhemp (common waterhemp, Amaranthus rudis), and velvetleaf (Abutilon theophrasti) were planted into a blend of loam soil and sand and treated preemergence with test chemicals formulated in a non-phytotoxic solvent mixture which included a surfactant.
(§2) At the same time, plants selected from these crop and weed species and also winter barley (Hordeum vulgare), bermudagrass (Cynodon dactylon), downy bromegrass (Bromus tectorum), canarygrass (Phalaris minor), cocklebur (common cocklebur, Xanthium strumarium), woolly cupgrass (Eriochloa villosa), deadnettle (henbit deadnettle, Lamium amplexicaule), green foxtail (Setaria viridis), goosegrass (Eleusine indica), surinam grass (Brachiaria decumbens), windgrass (Apera spica-venti), chickweed (common chickweed, Stellaria media), kochia (Kochia scoparia), and wild oat (Avena fatua), were planted in pots containing Redi-Earth® planting medium (Scotts Company, 14111 Scottslawn Road, Marysville, Ohio 43041) comprising spaghnum peat moss, vermiculite, wetting agent and starter nutrients and treated with postemergence applications of test chemicals formulated in the same manner. Plants ranged in height from 2 to 18 cm (1- to 4-leaf stage) for postemergence treatments. Treated plants and controls were maintained in a greenhouse for 13 to 15 days, after which time all species were compared to controls and visually evaluated. Plant response ratings, summarized in Table C, are based on a scale of 0 to 100 where 0 is no effect and 100 is complete control. A dash (-) response means no test result.

[2] = system: winter wheat (Triticum aestivum); assay: as above; details: Triticum aestivum; for plant injury at 62 g/ha: 62 g ai/ha; for plant injury at 125 g/ha: 125 g ai/ha; for plant injury at 250 g/ha: 250 g ai/ha; for plant injury at 500 g/ha: 500 g ai/ha
Source text: as §1, §2

[3] = system: giant foxtail (Setaria faberii); assay: as above; details: Setaria faberi; for pest or weed control at 62 g/ha: 62 g ai/ha; for pest or weed control at 125 g/ha: 125 g ai/ha; for pest or weed control at 250 g/ha: 250 g ai/ha; for pest or weed control at 500 g/ha: 500 g ai/ha
Source text: as §1, §2

wild oat (Avena fatua) = assay: Test C postemergence greenhouse test, plant response rating 0-100; details: Avena fatua, post-emergence
Source text: as §2

[4] = system: chickweed (common chickweed, Stellaria media); assay: as above; details: Stellaria media, post-emergence
Source text: as §2

kochia (Kochia scoparia) = assay: as above; details: Bassia scoparia, post-emergence
Source text: as §2

[5] = system: pigweed (Amaranthus retroflexus); assay: Test A pre-/postemergence greenhouse herbicide test, visual injury rating 0-100; details: for pest or weed control at 500 g/ha: 500 g ai/ha
In short: (§3)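 Visual injury versus untreated controls, scored about 10 days after treatment on a 0 to 100 scale (0 = no effect, 100 = complete control). Applications were preemergence directed soil spray plus postemergence spray at one- to two-leaf stage, 2 to 10 cm plants.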

[6] = system: giant foxtail (Setaria faberii); assay: as above; details: for pest or weed control at 500 g/ha: 500 g ai/ha
In short: as §3

[7] = system: wheat (Triticum aestivum); assay: as above; details: for plant injury at 500 g/ha: 500 g ai/ha
In short: as §3

[8] = system: large (Lg) crabgrass (Digitaria sanguinalis); assay: as above; details: for pest or weed control at 500 g/ha: 500 g ai/ha
In short: as §3

[9] = system: velvetleaf (Abutilon theophrasti); assay: as above; details: for pest or weed control at 500 g/ha: 500 g ai/ha
In short: as §3

corn (Zea mays) = assay: as above; details: for plant injury at 500 g/ha: 500 g ai/ha
In short: as §3

[10] = system: barnyardgrass (Echinochloa crus-galli); assay: as above; details: for pest or weed control at 500 g/ha: 500 g ai/ha
In short: as §3

[11] = system: morningglory (Ipomoea spp.); assay: as above; details: for pest or weed control at 500 g/ha: 500 g ai/ha
In short: as §3

[12] = post-emergence, Postemergence, read-out: Plant response rating (0 to 100), Johnsongrass
[13] = post-emergence, Postemergence, scale 0 to 100
[14] = pre-emergence, Preemergence, read-out: Plant response rating, Johnsongrass
[15] = post-emergence, Postemergence, read-out: Plant response rating (0 to 100), Wheat
[16] = pre-emergence, Preemergence, read-out: Plant response rating, Wheat
[17] = post-emergence, Postemergence, read-out: Plant response rating (0 to 100), Foxtail, Giant
[18] = pre-emergence, Preemergence, read-out: Plant response rating, Foxtail, Giant

`CCOC(OCC)(c1ccccc1)c1c[nH]nc1-c1cc(Cl)cc(Cl)c1` [Compound 14, 3-(3,5-dichlorophenyl)-4-(diethoxyphenylmethyl)-1H-pyrazole] was tested, and the pest or weed control at 62 g/ha [1, 12] was 0%, the pest or weed control at 125 g/ha [1, 12] was 0% and the pest or weed control at 250 g/ha [1, 13] was 0%. It also gave a pest or weed control at 500 g/ha [1, 13] of 0%, a pest or weed control at 62 g/ha [1, 14] of 0% and a pest or weed control at 125 g/ha [1, 14] of 0%. For the same compound, the pest or weed control at 250 g/ha ([1]; pre-emergence, Preemergence) was 0%, the pest or weed control at 500 g/ha ([1]; pre-emergence, Preemergence) was 0% and the plant injury at 62 g/ha [2, 15] was 0%. The plant injury at 125 g/ha [2, 15] was 0%, the plant injury at 250 g/ha [2, 13] was 0% and the plant injury at 500 g/ha [2, 13] was 5%. The plant injury at 62 g/ha [2, 16] was 0%, the plant injury at 125 g/ha [2, 16] was 0% and the plant injury at 250 g/ha ([2]; pre-emergence, Preemergence) was 0%. For the same compound, the plant injury at 500 g/ha ([2]; pre-emergence, Preemergence) was 0%, the pest or weed control at 62 g/ha [3, 17] was 0% and the pest or weed control at 125 g/ha [3, 17] was 0%. It also gave a pest or weed control at 250 g/ha [3, 13] of 0%, a pest or weed control at 500 g/ha [3, 13] of 0% and a pest or weed control at 62 g/ha [3, 18] of 0%. It also gave a pest or weed control at 125 g/ha [3, 18] of 0%, a pest or weed control at 250 g/ha ([3]; pre-emergence, Preemergence) of 0% and a pest or weed control at 500 g/ha ([3]; pre-emergence, Preemergence) of 0%. It also gave a pest or weed control at 62 g/ha (wild oat (Avena fatua); 62 g ai/ha) of 0%, a pest or weed control at 125 g/ha (wild oat (Avena fatua); 125 g ai/ha) of 0% and a pest or weed control at 250 g/ha (wild oat (Avena fatua); 250 g ai/ha, scale 0 to 100) of 0%. The pest or weed control at 500 g/ha (wild oat (Avena fatua); 500 g ai/ha, scale 0 to 100) was 5%, the pest or weed control at 62 g/ha ([4]; 62 g ai/ha) was 90% and the pest or weed control at 125 g/ha ([4]; 125 g ai/ha) was 100%. The pest or weed control at 250 g/ha ([4]; 250 g ai/ha, scale 0 to 100) was 100%, the pest or weed control at 500 g/ha ([4]; 500 g ai/ha, scale 0 to 100) was 95% and the pest or weed control at 62 g/ha (kochia (Kochia scoparia); 62 g ai/ha) was 85%. It also gave a pest or weed control at 125 g/ha (kochia (Kochia scoparia); 125 g ai/ha) of 90%, a pest or weed control at 250 g/ha (kochia (Kochia scoparia); 250 g ai/ha, scale 0 to 100) of 90% and a pest or weed control at 500 g/ha (kochia (Kochia scoparia); 500 g ai/ha, scale 0 to 100) of 90%. It also gave a pest or weed control at 125 g/ha ([5]; Amaranthus retroflexus, post-emergence, 240 h, Postemergence, 125 g ai/ha, read-out: Plant response rating (0 to 100 scale), Pigweed) of 80%, a pest or weed control at 500 g/ha ([5]; Amaranthus retroflexus, post-emergence, 240 h, Postemergence, read-out: Plant response rating (0 to 100 scale), Pigweed) of 90% and a pest or weed control at 500 g/ha ([5]; Amaranthus retroflexus, pre-emergence, 240 h, Preemergence, read-out: Plant response rating (0 to 100 scale), Pigweed) of 100%. The “Pigweed plant response rating (0 = no effect, 100 = complete control)” value ([5]; Preemergence, 125 g ai/ha) was 70, the “Foxtail, Giant plant response rating (0 = no effect, 100 = complete control)” value ([6]; Preemergence, 125 g ai/ha) was 0 and the pest or weed control at 125 g/ha ([6]; Setaria faberi, post-emergence, 240 h, Postemergence, 125 g ai/ha, read-out: Plant response rating (0 to 100 scale), Foxtail, Giant) was 0%. The pest or weed control at 500 g/ha ([6]; Setaria faberi, post-emergence, 240 h, Postemergence, read-out: Plant response rating (0 to 100 scale), Foxtail, Giant) was 0%, the pest or weed control at 500 g/ha ([6]; Setaria faberi, pre-emergence, 240 h, Preemergence, read-out: Plant response rating (0 to 100 scale), Foxtail, Giant) was 0% and the “Wheat plant response rating (0 = no effect, 100 = complete control)” value ([7]; Preemergence, 125 g ai/ha) was 0. The plant injury at 125 g/ha ([7]; Triticum aestivum, post-emergence, 240 h, Postemergence, 125 g ai/ha, read-out: Plant response rating (0 to 100 scale), Wheat) was 0%, the plant injury at 500 g/ha ([7]; Triticum aestivum, post-emergence, 240 h, Postemergence, read-out: Plant response rating (0 to 100 scale), Wheat) was 0% and the plant injury at 500 g/ha ([7]; Triticum aestivum, pre-emergence, 240 h, Preemergence, read-out: Plant response rating (0 to 100 scale), Wheat) was 0%. It also gave a pest or weed control at 125 g/ha ([8]; Digitaria sanguinalis, post-emergence, 240 h, Postemergence, 125 g ai/ha, read-out: Plant response rating (0 to 100 scale), Crabgrass, Large) of 0%, a pest or weed control at 500 g/ha ([8]; Digitaria sanguinalis, post-emergence, 240 h, Postemergence, read-out: Plant response rating (0 to 100 scale), Crabgrass, Large) of 0% and a pest or weed control at 500 g/ha ([8]; Digitaria sanguinalis, pre-emergence, 240 h, Preemergence, read-out: Plant response rating (0 to 100 scale), Crabgrass, Large) of 0%. The “Crabgrass, Large plant response rating (0 = no effect, 100 = complete control)” value ([8]; Preemergence, 125 g ai/ha) was 0, the pest or weed control at 125 g/ha ([9]; Abutilon theophrasti, post-emergence, 240 h, Postemergence, 125 g ai/ha, read-out: Plant response rating (0 to 100 scale), Velvetleaf) was 80% and the pest or weed control at 500 g/ha ([9]; Abutilon theophrasti, post-emergence, 240 h, Postemergence, read-out: Plant response rating (0 to 100 scale), Velvetleaf) was 90%. The pest or weed control at 500 g/ha ([9]; Abutilon theophrasti, pre-emergence, 240 h, Preemergence, read-out: Plant response rating (0 to 100 scale), Velvetleaf) was 100%, the “Velvetleaf plant response rating (0 = no effect, 100 = complete control)” value ([9]; Preemergence, 125 g ai/ha) was 50 and the “Corn plant response rating (0 = no effect, 100 = complete control)” value (corn (Zea mays); Preemergence, 125 g ai/ha) was 0. The plant injury at 125 g/ha (corn (Zea mays); Zea mays, post-emergence, 240 h, Postemergence, 125 g ai/ha, read-out: Plant response rating (0 to 100 scale), Corn) was 0%, the plant injury at 500 g/ha (corn (Zea mays); Zea mays, post-emergence, 240 h, Postemergence, read-out: Plant response rating (0 to 100 scale), Corn) was 0% and the plant injury at 500 g/ha (corn (Zea mays); Zea mays, pre-emergence, 240 h, Preemergence, read-out: Plant response rating (0 to 100 scale), Corn) was 0%. The pest or weed control at 125 g/ha ([10]; Echinochloa crus-galli, post-emergence, 240 h, Postemergence, 125 g ai/ha, read-out: Plant response rating (0 to 100 scale), Barnyardgrass) was 0%, the pest or weed control at 500 g/ha ([10]; Echinochloa crus-galli, post-emergence, 240 h, Postemergence, read-out: Plant response rating (0 to 100 scale), Barnyardgrass) was 0% and the pest or weed control at 500 g/ha ([10]; Echinochloa crus-galli, pre-emergence, 240 h, Preemergence, read-out: Plant response rating (0 to 100 scale), Barnyardgrass) was 0%. For the same compound, the “Barnyardgrass plant response rating (0 = no effect, 100 = complete control)” value ([10]; Preemergence, 125 g ai/ha) was 0, the pest or weed control at 125 g/ha ([11]; Ipomoea, post-emergence, 240 h, Postemergence, 125 g ai/ha, read-out: Plant response rating (0 to 100 scale), Morningglory) was 0% and the pest or weed control at 500 g/ha ([11]; Ipomoea, post-emergence, 240 h, Postemergence, read-out: Plant response rating (0 to 100 scale), Morningglory) was 0%. The pest or weed control at 500 g/ha ([11]; Ipomoea, pre-emergence, 240 h, Preemergence, read-out: Plant response rating (0 to 100 scale), Morningglory) was 0% and the “Morningglory plant response rating (0 = no effect, 100 = complete control)” value ([11]; Preemergence, 125 g ai/ha) was 0.
